Results from patent US20260294890A1, “LONG-TERM PREVENTION AND/OR TREATMENT OF A DISEASE BY SLO-1 INHIBITORS” (Elanco Animal Health GmbH, priority 2023, published 2026).

Key:
[1] = log P by HPLC on reversed phase columns (LC-MS Method 0); type: physicochemical; conditions: 0.1% formic acid/acetonitrile; Method 0, acidic range, 0.1% formic acid in water and acetonitrile; read-out: log P (HCOOH)
Protocol: Measurement of log P values was performed according to EEC directive 79/831 Annex V.A8 by HPLC (High Performance Liquid Chromatography) on reversed phase columns with the following methods, instrument(s): Agilent 1100 LC system, Agilent MSD system, HTS PAL; Waters IClass Acquity UPLC, SQD2 (MS), PDA (UV). • ^[a]log P value is determined by measurement of LC-UV, in an acidic range, with 0.1% formic acid in water and acetonitrile as eluent (linear gradient from 10% acetonitrile to 95% acetonitrile). • ^[b]log P value is determined by measurement of LC-UV, in a neutral range, with 0.001 molar ammonium acetate solution in water and acetonitrile as eluent (linear gradient from 10% acetonitrile to 95% acetonitrile).
Calibration was done with straight-chain alkan-2-ones (with 3 to 16 carbon atoms) with known log P values (measurement of log P values using retention times with linear interpolation between successive alkanones). Lambda-max-values were determined using UV-spectra from 200 nm to 400 nm and the peak values of the chromatographic signals.

[2] = Assay 1: half-life and plasma clearance upon intravenous administration to beagle dogs; type: in vivo; conditions: dog, iv dose up to 0.3 mg/kg, plasma, geometric mean, Phoenix PK/PD (Example 1: internal tool); for half-life: read-out: Half-life (h/Form) iv, geometric mean (converted)
Protocol: Assay 1: Determination of Half-Life and Plasma Clearance of Compounds of the Invention Upon Administration to Beagle Dogs
Compounds according to the invention were administered as an intravenous (iv) dose (up to 0.3 mg/kg) to beagle dogs (minimum n=3). Blood samples were collected from these beagle dogs up to 168 h after intravenous administration and up to 3024 h after subcutaneous administration. A portion of each whole blood sample was processed to plasma. Compound concentrations were determined in plasma using LCMS/MS. Phoenix™ Pharmacokinetic and Pharmacodynamic (PK/PD) was used to determine half-life and plasma clearance values. Only for Example 1, an internal tool available to the inventors was used to determine the half-life and plasma clearance values.

Dirofilaria immitis [3] = assay: Assay 2: prevention test, Dirofilaria immitis heartworm infection in dogs (modified Knott and heartworm antigen tests)
Dirofilaria immitis [4] = assay: Assay 2: residual protection test, second Dirofilaria immitis infection of dogs 90 days after treatment
Ancylostoma caninum [5] = assay: Assay 3: residual efficacy against hookworm infection in dogs (cohorts B and C); type: in vivo; conditions: for % Reduction of Mean Fecal Egg Count / % Reduction of Mean Number of Recovered Hookworms: vs control; for Mean Number of Recovered Hookworms: after final FEC
Protocol: (§1) 12 dogs were allocated to one of six groups in three cohorts. Each cohort comprised a negative control group (n=2) (‘Control group’) and a group (n=2) treated with the compound of Example 9 (‘Treatment group’).
(§2) Dogs in negative control groups were administered an equivalent volume of vehicle solution.
(§3) All dogs were infected with 100-300 hookworm (Ancylostoma caninum) 3rd-stage larvae (L3s) via oral gavage (W.A.A.V.P. Guidelines, First edition; Jacobs, D. E., A. Arakawa, C. H. Courtney, et al., 1994. Vet. Parasitol. 52: 179-202). The cohorts were treated as follows: • Cohort A: The compound of Example 9 or the vehicle solution was administered 15 days after infection with Ancylostoma caninum • Cohort B: The compound of Example 9 or the vehicle solution was administered 30 days prior to infection with Ancylostoma caninum • Cohort C: The compound of Example 9 or the vehicle solution was administered 60 days prior to infection with Ancylostoma caninum
(§4) Fecal egg counts (FECs, eggs per gram of feces) were obtained from each dog 15, 20, 25 and 30 days after hookworm infection.
(§5) Following the final FEC, dogs were dewormed with a commercial anthelmintic and feces were collected for 48 hours. Fecal output from each dog was soaked in water for a minimum of 30 minutes and processing through 250 μm, 150 μm and 38 μm sieves to recover expelled adult and immature hookworms. Expelled hookworms were preserved in fixative (5% formalin) and counted.

Ancylostoma caninum [6] = assay: Assay 3: treatment of an existing hookworm infection in dogs (cohort A); type: in vivo; conditions: 30 mg/kg subcutaneous 15 days after infection
Protocol: as §1, §2, §3, §4, §5
Cohort A was designed to evaluate effectiveness against patent adult hookworm infections present at the time of treatment with the compound of Example 9.

[7] = cohort B, 30 mg/kg subcutaneous 30 days prior to infection, 15 days after infection
[8] = cohort B, 30 mg/kg subcutaneous 30 days prior to infection, 20 days after infection
[9] = cohort B, 30 mg/kg subcutaneous 30 days prior to infection, 25 days after infection
[10] = cohort B, 30 mg/kg subcutaneous 30 days prior to infection, 30 days after infection
[11] = cohort B, 30 mg/kg subcutaneous 30 days prior to infection
[12] = cohort C, 30 mg/kg subcutaneous 60 days prior to infection, 15 days after infection
[13] = cohort C, 30 mg/kg subcutaneous 60 days prior to infection, 20 days after infection
[14] = cohort C, 30 mg/kg subcutaneous 60 days prior to infection, 25 days after infection
[15] = cohort C, 30 mg/kg subcutaneous 60 days prior to infection, 30 days after infection
[16] = cohort C, 30 mg/kg subcutaneous 60 days prior to infection

Compound `O=C(N[C@H]1CCOc2ccccc21)c1cnc2c(-c3cc(F)cc(F)c3F)c(F)ccc2c1N1CC(F)C1` [Example 7, N-[(4S)-3,4-Dihydro-2H-chromen-4-yl]-7-fluoro-4-(3-fluoroazetidin-1-yl)-8-(2,3,5-trifluorophenyl)quinoline-3-carboxamide] has a chromatographic logP [1] of 1.93, a clearance [2] of 0.833 mL/min/kg and a half-life [2] of 124 h.
For `O=C(N[C@H]1CCOc2ccccc21)c1cnc2c(-c3cc(F)cc(F)c3F)c(F)ccc2c1[C@H]1C[C@H](F)C1` [Example 9, N—((S)-chroman-4-yl)-7-fluoro-4-((1R,3S)-3-fluorocyclobutyl)-8-(2,3,5-trifluorophenyl)quinoline-3-carboxamide], the “dogs with positive test results in the modified Knott and heartworm antigen tests” value (Dirofilaria immitis [3]; 30 mg/kg subcutaneous 90 days after infection, 150, 180 and 210 days after infection) was “None of the dogs”, the “effectiveness at preventing the development of patent adult heartworm” value (Dirofilaria immitis [3]; dogs, 30 mg/kg subcutaneous, administered 90 days after experimental infection) was 100% and the “dogs with a positive heartworm antigen test result” value (Dirofilaria immitis [4]; 30 mg/kg subcutaneous 90 days before second infection, 149 days after second infection) was 50%. The “residual protection from infection with Dirofilaria immitis” value (Dirofilaria immitis [4]; dogs, 30 mg/kg subcutaneous prior to second infection) was “significant residual protection”, the “reduction in worm burden in the heart and lungs relative to the negative control group” value (Dirofilaria immitis [4]; dogs, 30 mg/kg subcutaneous prior to second infection, necropsy approx. 5 months after infection, all dogs) was > 80% and the “Mean Fecal Egg Count” value (Ancylostoma caninum [5]; [7]) was 0 EPG. For the same compound, the “% Reduction of Mean Fecal Egg Count” value (Ancylostoma caninum [5]; [7]) was 100%, the “Mean Fecal Egg Count” value (Ancylostoma caninum [5]; [8]) was 0 EPG and the “% Reduction of Mean Fecal Egg Count” value (Ancylostoma caninum [5]; [8]) was 100%. The “Mean Fecal Egg Count” value (Ancylostoma caninum [5]; [9]) was 0 EPG, the “% Reduction of Mean Fecal Egg Count” value (Ancylostoma caninum [5]; [9]) was 100% and the “Mean Fecal Egg Count” value (Ancylostoma caninum [5]; [10]) was 0 EPG. The “% Reduction of Mean Fecal Egg Count” value (Ancylostoma caninum [5]; [10]) was 100%, the “Mean Number of Recovered Hookworms” value (Ancylostoma caninum [5]; [11]) was 0 and the “% Reduction of Mean Number of Recovered Hookworms” value (Ancylostoma caninum [5]; [11]) was 100%. For the same compound, the “Mean Fecal Egg Count” value (Ancylostoma caninum [5]; [12]) was 0 EPG, the “% Reduction of Mean Fecal Egg Count” value (Ancylostoma caninum [5]; [12]) was 100% and the “Mean Fecal Egg Count” value (Ancylostoma caninum [5]; [13]) was 0 EPG. The “% Reduction of Mean Fecal Egg Count” value (Ancylostoma caninum [5]; [13]) was 100%, the “Mean Fecal Egg Count” value (Ancylostoma caninum [5]; [14]) was 0 EPG and the “% Reduction of Mean Fecal Egg Count” value (Ancylostoma caninum [5]; [14]) was 100%. The “Mean Fecal Egg Count” value (Ancylostoma caninum [5]; [15]) was 0 EPG, the “% Reduction of Mean Fecal Egg Count” value (Ancylostoma caninum [5]; [15]) was 100% and the “Mean Number of Recovered Hookworms” value (Ancylostoma caninum [5]; [16]) was 0. The “% Reduction of Mean Number of Recovered Hookworms” value (Ancylostoma caninum [5]; [16]) was 100%, the “duration of 100% protection from infections with hookworm larvae” value (Ancylostoma caninum [5]; cohorts B and C, 30 mg/kg subcutaneous) was “at least 60 days” and the “protection from infections with hookworm larvae” value (Ancylostoma caninum [5]; cohorts B and C, 30 mg/kg subcutaneous, FECs and expelled worm counts, for at least 60 days) was 100%. For the same compound, the clearance [2] was 1.17 mL/min/kg, the half-life [2] was 190 h and the “Fecal egg count reduction upon treatment” value (Ancylostoma caninum [6]) was > 90%. For the same compound, the “Mean Fecal Egg Count” value (Ancylostoma caninum [6]; 15 days after infection) was 0 EPG, the “% Reduction of Mean Fecal Egg Count” value (Ancylostoma caninum [6]; 15 days after infection, vs control) was 100% and the “Mean Fecal Egg Count” value (Ancylostoma caninum [6]; 20 days after infection) was 0 EPG. The “% Reduction of Mean Fecal Egg Count” value (Ancylostoma caninum [6]; 20 days after infection, vs control) was 100%, the “Mean Fecal Egg Count” value (Ancylostoma caninum [6]; 25 days after infection) was 25 EPG and the “% Reduction of Mean Fecal Egg Count” value (Ancylostoma caninum [6]; 25 days after infection, vs control) was 93.75%. For the same compound, the “Mean Fecal Egg Count” value (Ancylostoma caninum [6]; 30 days after infection) was 0 EPG, the “% Reduction of Mean Fecal Egg Count” value (Ancylostoma caninum [6]; 30 days after infection, vs control) was 100% and the “Mean Number of Recovered Hookworms” value (Ancylostoma caninum [6]; after final FEC) was 0.0. For the same compound, the “% Reduction of Mean Number of Recovered Hookworms” value (Ancylostoma caninum [6]; vs control) was 100%.
